Experimental data as given in patent US6733777B2, “Cationic reagents of transfection” (Qiagen GmbH, priority 1996, dated 2004).
Where two headings read alike, the source gives them in different places.

Tests used:
[1] = system: COS7 cells; settings: liposome with DOPE, 1 μg pCMVβ, optimum of 1-4 μl liposome
Experimental: (§1) Liposomes were prepared at 60° C. by combining 10-3-10 (Propandiyl-1,3-bis(decyl dimethylammonium bromide) and DOPE (as described in Example 3), with and without sonication.
(§2) Liposomes were used to transfect HeLaS3 and COS7 cells in vitro with the reporter plasmid pCMVβ (Clontech). Transfection efficiencies, as obtained by optical density (OD) measurements after cell-lysis and β-Gal activity assay, were compared to efficiencies obtained in parallel with a commercially available liposome-preparation (Lipofectamine, Gibco LTI) and given as percentage of Lipofectamine efficiency. For each transfection, 1 μg of pCMVβ (isolated with EndoFree, QIAGEN) was used per well of a 96-well plate. The DNA was diluted to 50 μl with DMEM medium (Gibco LTI) and combined with 1, 2, 3 and 4 μl of the liposome preparations subsequently diluted to 50 μl with DMEM medium. DNA and liposome solutions were mixed and applied to the cells for 6 hours at 37° C., 5% CO2. Afterwards, medium was changed to DMEM containing 10% fetal calf serum. Cells were lysed after 48 h incubation at 37° C., 5% CO2.
(§3) Twofold determinations each were performed. The values were averaged and the highest efficiency (optimum) within a row was given as percentage value of the highest efficiency (optimum) obtained with Lipofectamine.

[2] = system: HeLaS3 cells; settings: for Results (%) HeLaS3 (transfection efficiency as percentage of Lipofectamine efficiency): liposome with DOPE, 1 μg pCMVβ, optimum of 1-4 μl liposome
Experimental: as §1, §2, §3

[3] = system: HeLaS3 cells; settings: liposome with DOPE, 0.5 μg pCMVβ
Experimental: (§4) Without sonication, liposomes were prepared at 60° C. by combining DOPE with one of the following:
(§5) The resulting liposomes were used to transfect HeLaS3 and Huh7 cells in vitro with the reporter plasmid pCMVβ (Clontech). Transfection efficiency values, obtained by taking OD measurements after cell-lysis and β-Gal activity assay, were compared to efficiencies obtained in parallel with a commercially available liposome-preparation (Lipofectamine, Gibco LTI) and given as percentage of Lipofectamine efficiency. In each transfection, 0.5 μg of pCMVβ (isolated with EndoFree, QIAGEN) was used per well of a 96 well plate. The DNA was diluted to 50 μl with DMEM medium (Gibco LTI) and combined with 1, 2, 3 and 4 μl of the liposome preparations subsequently diluted to 50 μl with DMEM medium. DNA and liposome solutions were mixed and applied to the cells for 6 hours at 37° C., 5% CO2. Afterwards, medium was changed to DMEM containing 10% fetal calf serum. Cells were lysed after 48 h incubation at 37° C., 5% CO2.
as §3

[4] = system: Huh7 cells; settings: liposome with DOPE, 0.5 μg pCMVβ
Experimental: as §4, §5, §3

[5] = X(DOPE) 0.50, without sonication
[6] = X(DOPE) 0.60, without sonication
[7] = X(DOPE) 0.70, without sonication
[8] = X(DOPE) 0.80, without sonication

Substance: Propandiyl-1,3-bis(decyl dimethylammonium bromide) [10-3-10]
- Results % COS7 (transfection efficiency as percentage of Lipofectamine efficiency) ([1]; X(DOPE) 0.20, sonic. for 300 s): 6%
- Results % COS7 (transfection efficiency as percentage of Lipofectamine efficiency) ([1]; X(DOPE) 0.20, w/o sonication): 6%
- Results % COS7 (transfection efficiency as percentage of Lipofectamine efficiency) ([1]; X(DOPE) 0.35, sonic. for 300 s): 6%
- Results % COS7 (transfection efficiency as percentage of Lipofectamine efficiency) ([1]; X(DOPE) 0.35, w/o sonication): 6%
- Results % COS7 (transfection efficiency as percentage of Lipofectamine efficiency) ([1]; X(DOPE) 0.50, sonic. for 300 s): 6%
- Results % COS7 (transfection efficiency as percentage of Lipofectamine efficiency) ([1]; X(DOPE) 0.50, w/o sonication): 7%
- Results % COS7 (transfection efficiency as percentage of Lipofectamine efficiency) ([1]; X(DOPE) 0.65, sonic. for 300 s): 8%
- Results % COS7 (transfection efficiency as percentage of Lipofectamine efficiency) ([1]; X(DOPE) 0.65, w/o sonication): 26%
- Results (%) HeLaS3 (transfection efficiency as percentage of Lipofectamine efficiency) ([2]; X(DOPE) 0.20, sonic. for 300 s): 39%
- Results (%) HeLaS3 (transfection efficiency as percentage of Lipofectamine efficiency) ([2]; X(DOPE) 0.20, w/o sonication): 39%
- Results (%) HeLaS3 (transfection efficiency as percentage of Lipofectamine efficiency) ([2]; X(DOPE) 0.35, sonic. for 300 s): 39%
- Results (%) HeLaS3 (transfection efficiency as percentage of Lipofectamine efficiency) ([2]; X(DOPE) 0.35, w/o sonication): 61%
- Results (%) HeLaS3 (transfection efficiency as percentage of Lipofectamine efficiency) ([2]; X(DOPE) 0.50, sonic. for 300 s): 47%
- Results (%) HeLaS3 (transfection efficiency as percentage of Lipofectamine efficiency) ([2]; X(DOPE) 0.50, w/o sonication): 115%
- Results (%) HeLaS3 (transfection efficiency as percentage of Lipofectamine efficiency) ([2]; X(DOPE) 0.65, sonic. for 300 s): 83%
- Results (%) HeLaS3 (transfection efficiency as percentage of Lipofectamine efficiency) ([2]; X(DOPE) 0.65, w/o sonication): 275%
- cell-type specificity compared with Lipofectamine ([2]; liposomes with DOPE, HeLaS3 versus COS7): more cell-type specific than Lipofectamine
- Results (%) HeLaS3 (transfection efficiency as percentage of Lipofectamine efficiency) [3, 5]: 241%
- Results (%) HeLaS3 (transfection efficiency as percentage of Lipofectamine efficiency) [3, 6]: 293%
- Results (%) HeLaS3 (transfection efficiency as percentage of Lipofectamine efficiency) [3, 7]: 223%
- Results (%) HeLaS3 (transfection efficiency as percentage of Lipofectamine efficiency) [3, 8]: 118%
- Results (%) Huh7 (transfection efficiency as percentage of Lipofectamine efficiency) [4, 5]: 80%
- Results (%) Huh7 (transfection efficiency as percentage of Lipofectamine efficiency) [4, 6]: 83%
- Results (%) Huh7 (transfection efficiency as percentage of Lipofectamine efficiency) [4, 7]: 54%
- Results (%) Huh7 (transfection efficiency as percentage of Lipofectamine efficiency) [4, 8]: 39%
